This note sets out measurements from patent publication US8895585B2, “Nicotinamide derivative or salt thereof” (FUJIFILM Corporation, priority 2010, dated 2014).

Structures are written as SMILES.

One experiment has as its target T1, glutathione S-transferase (GST)-fused full-length human Syk protein (Homo sapiens, UniProt P43405).
T1 construct: (GST)-fused full-length human Syk protein; GST (glutathione S-transferase); purchased Carna Biosciences
The experiment in a line: Syk enzyme assay. It is filed as biochemical. Conditions: Syk enzyme assay, Test Example 1; read-out: IC50 of Syk-inhibitory activity. In outline:
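Baculovirus-expressed enzyme (1.2 ng) was preincubated with compound in HEPES pH 7.0/MgCl2/DTT buffer, 2 min shaking then 13 min at room temperature. Biotin-EDPDYEWPSA-NH2 (0.4 μM final) and ATP (27 μM final) were added for 40 min at room temperature. EDTA stop, streptavidin-XL/PT66-K TR-FRET at 615/665 nm gave IC50.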
On to `CCCc1nn(C2CC2)c2ccc(Nc3nc(N[C@H](CC4CC4)[C@H](C)N)c(F)cc3C(N)=O)cc12` [Example 006-482, 6-(((2R,3S)-3-amino-1-cyclopropylbutan-2-yl)amino)-2-((1-cyclopropyl-3-propyl-1H-indazol-5-yl)amino)-5-fluoronicotinamide], for which the IC50 (as a rule, the concentration needed to halve the response being measured) was less than 0.01 µM. On the same count and under the same terms, the figure for `COC(C)CCOc1cc(Nc2nc(NC3CCCCC3N)c(F)cc2C(N)=O)ccn1` (stereo not drawn) [Example 002-085] is 0.01 to 0.05 µM; for `CC[C@H](N)[C@@H](CC)Nc1nc(Nc2cccc3c2cnn3C)c(C(N)=O)cc1F` [Example 006-367, 6-(((3R,4S)-4-aminohexan-3-yl)amino)-5-fluoro-2-((1-methyl-1H-indazol-4-yl)amino)nicotinamide] it is 0.01 to 0.05 µM. The same measure, in the same setting: under `NC(=O)c1cc(F)c(NC2CCCCC2N)nc1Nc1cncc(NC(=O)c2ccccc2OC(F)(F)F)c1` (stereo not drawn) [Example 027-026] stands 0.05 to 0.1 µM; under `CC[C@H](N)[C@@H](CC)Nc1nc(Nc2ccc3cnn(C)c3c2)c(C(N)=O)cc1F` [Example 006-366, 6-(((3R,4S)-4-aminohexan-3-yl)amino)-5-fluoro-2-((1-methyl-1H-indazol-6-yl)amino)nicotinamide], 0.05 to 0.1 µM; under `CNC(=O)c1cc2c(Nc3nc(NC4CCCCC4N)c(F)cc3C(N)=O)ccnc2n1C` (stereo not drawn) [Example 029-008], 0.01 to 0.05 µM. Still for that read-out and setting: the figure for `COCCn1c(=O)ccc2cc(Nc3nc(NC4CCCCC4N)c(F)cc3C(N)=O)cnc21` (stereo not drawn) [Example 002-116] is 0.05 to 0.1 µM; for `NC(=O)c1cc(F)c(N[C@@H]2CCCC[C@@H]2N)nc1Nc1ccc2cn[nH]c2c1` (relative stereo) [Example 006-086, 6-(cis-2-aminocyclohexylamino)-5-fluoro-2-((1H-indazol-6-yl)amino)nicotinamide] it is less than 0.01 µM. `COc1cccc(Nc2nc(NC3CCCCC3N)c(F)cc2C(N)=O)c1` (stereo not drawn) [Example 002-006]: the IC50 is less than 0.01 µM. Same read-out and setting: the figure for `NC(=O)c1cc(F)c(NC2CCCCC2N)nc1Nc1ccnc(-c2ccccc2)c1` (stereo not drawn) [Example 002-052] is less than 0.01 µM; for `COc1cc(Nc2nc(N3CCC(N)C3)c(F)cc2C(N)=O)cc(OC)c1` (stereo not drawn) [Example 018-001] it is 0.1 to 1 µM. Still for that read-out and setting: the figure for `NC(=O)c1cc(F)c(NC2CCCCC2N)nc1Nc1cccc2c1cnn2CC1CC1` (stereo not drawn) [Example 002-028] is less than 0.01 µM; for `COc1cc(Nc2nc(N3CCNC(=O)C3)c(F)cc2C(N)=O)cc(OC)c1` [Example 016-024] it is 0.1 to 1 µM. Same read-out and setting: the figure for `COCCOc1ncc(Nc2nc(N[C@@H]3CCCC[C@@H]3N)c(F)cc2C(N)=O)cc1Cl` [Example 006-571, 6-(((1R,2S)-2-aminocyclohexyl)amino)-2-((5-chloro-6-(2-methoxyethoxy)pyridin-3-yl)amino)-5-fluoronicotinamide] is 0.05 to 0.1 µM. As to `CC(C)c1cncc(Nc2nc(NC3CCCCC3N)c(F)cc2C(N)=O)c1` (stereo not drawn) [Example 002-039], the IC50 was 0.01 to 0.05 µM. Same read-out and setting: the figure for `NC(=O)c1cc(F)c(N[C@@H]2CCCC[C@@H]2N)nc1Nc1cncc(-c2cccc(N3CCCC3=O)c2)c1` (relative stereo) [Example 004-225, 6-(cis-2-aminocyclohexylamino)-5-fluoro-2-((5-(3-(2-oxopyrrolidin-1-yl)phenyl)pyridin-3-yl)amino)nicotinamide] is 0.01 to 0.05 µM; for `NC(=O)c1cc(F)c(N[C@H](Cc2ccccc2)C(N)=O)nc1Nc1ccc2ncccc2c1` [Example 012-012] it is 0.01 to 0.05 µM; for `CCOC(=O)c1c(F)cc2c(Nc3nc(N[C@@H]4CCCC[C@@H]4N)c(F)cc3C(N)=O)cccn12` [Example 004-115] it is less than 0.01 µM. As for `CC(=O)Nc1ccc(-c2cncc(Nc3nc(N[C@@H]4CCCC[C@@H]4N)c(F)cc3C(N)=O)c2)cc1` [Example 004-224], the IC50 is less than 0.01 µM. With `NCC(CCC(F)(F)F)Nc1nc(Nc2cncc(-c3ccccc3)c2)c(C(N)=O)cc1F` (stereo not drawn) [Example 006-305, 6-((1-amino-5,5,5-trifluoropentan-2-yl)amino)-5-fluoro-2-((5-phenylpyridin-3-yl)amino)nicotinamide], the IC50 lay within 0.01 to 0.05 µM.

Turning to `C[C@H](N)[C@@H](CC1CC1)Nc1nc(Nc2ccc3cnn(CCF)c3c2)c(C(N)=O)cc1F` [Example 006-437, 6-(((2R,3S)-3-amino-1-cyclopropylbutan-2-yl)amino)-5-fluoro-2-((1-(2-fluoroethyl)-1H-indazol-6-yl)amino)nicotinamide], the half-maximal inhibitory concentration (IC50) was 0.01 to 0.05 µM. `NC(=O)c1cc(F)c(N[C@@H]2CCCC[C@@H]2N)nc1Nc1ccc2[nH]c(C(=O)NCCN3CCOCC3)cc2c1` (relative stereo) [Example 029-019, 5-((6-(cis-2-aminocyclohexylamino)-3-carbamoyl-5-fluoropyridin-2-yl)amino)-N-(2-morpholinoethyl)-1H-indole-2-carboxamide]: the IC50 is less than 0.01 µM. Same read-out and setting: the figure for `COC(C)CCOc1ccc2ccc(Nc3nc(NC4CCCCC4N)c(F)cc3C(N)=O)cc2n1` (stereo not drawn) [Example 002-092] is less than 0.01 µM; for `NC(=O)c1cc(F)c(NCc2cccnc2)nc1Nc1ccc2ncccc2c1` [Example 012-017] it is 0.1 to 1 µM; for `C[C@H](N)[C@@H](C)Nc1nc(Nc2ccnc(-n3nccn3)c2)c(C(N)=O)cc1F` (racemic) [Example 006-189, 2-((2-(2H-1,2,3-triazol-2-yl)pyridin-4-yl)amino)-6-(((2R,3S)-3-aminobutan-2-yl)amino)-5-fluoronicotinamide 2-((2-(2H-1,2,3-triazol-2-yl)pyridin-4-yl)amino)-6-(((2S,3R)-3-aminobutan-2-yl)amino)-5-fluoronicotinamide] it is 0.01 to 0.05 µM. Same read-out and setting: the figure for `COCCn1nc(C(C)C)c2cc(Nc3nc(N[C@@H]4CCCC[C@@H]4N)c(F)cc3C(N)=O)ccc21` [Example 006-463, 6-(((1R,2S)-2-aminocyclohexyl)amino)-5-fluoro-2-((3-isopropyl-1-(2-methoxyethyl)-1H-indazol-5-yl)amino)nicotinamide] is less than 0.01 µM; for `NC(=O)c1cc(F)c(NC2CCCCC2N)nc1Nc1cncc(NC(=O)c2cccnc2)c1` (stereo not drawn) [Example 027-021] it is 0.01 to 0.05 µM. On the same count and under the same terms, the figure for `NCCNCCNc1nc(Nc2ccc3ncccc3c2)c(C(N)=O)cc1F` [Example 002-128] is 0.1 to 1 µM; for `NC(=O)c1cc(F)c(N[C@@H]2CCCC[C@@H]2N)nc1Nc1cncc(NC(=O)c2ccc(S(=O)(=O)F)cc2)c1` (relative stereo) [Example 027-017, 4-((5-(6-(cis-2-aminocyclohexylamino)-3-carbamoyl-5-fluoropyridin-2-yl)aminopyridin-3-yl)carbamoyl)benzene-1-sulfonyl fluoride] it is 0.01 to 0.05 µM.

As for `NC(=O)c1cc(F)c(NC2CCCCC2N)nc1Nc1ccnc(-c2ccc3c(c2)OCO3)c1` (stereo not drawn) [Example 002-176], the IC50 was less than 0.01 µM. The same measure, in the same setting: the figure for `NC(=O)c1cc(F)c(NC2CCCCC2N)nc1Nc1cccc2nn(Cc3ccccc3)cc12` (stereo not drawn) [Example 002-033] is less than 0.01 µM.

In the case of `NCCNc1nc(Nc2cncc(-c3ccccc3)c2)c(C(N)=O)cc1F` [Example 006-089, 6-((2-aminoethyl)amino)-5-fluoro-2-((5-phenylpyridin-3-yl)amino)nicotinamide], the IC50 fell in the range of 0.01 to 0.05 µM. Still for that read-out and setting: the figure for `CC(C)C(Nc1nc(Nc2ccc3ncccc3c2)c(C(N)=O)cc1F)[C@H](C)N` (stereo partly drawn) [Example 006-158, 6-(((2S)-2-amino-4-methylpentan-3-yl)amino)-5-fluoro-2-(quinolin-6-ylamino)nicotinamide] is 0.01 to 0.05 µM. The same measure, in the same setting: under `CCOCCOCCn1ncc2ccc(Nc3nc(NC4CCCCC4N)c(F)cc3C(N)=O)cc21` (stereo not drawn) [Example 002-049] stands 0.01 to 0.05 µM. Same read-out and setting: under `NC(=O)c1cc(F)c(NC2CCCCC2N)nc1Nc1cncc(NC(=O)c2ccncc2)c1` (stereo not drawn) [Example 027-022] stands 0.01 to 0.05 µM. With `NC(=O)c1cc(F)c(NC2CCCCC2N)nc1Nc1ccc2nc(OCC3CCCO3)ccc2c1` (stereo not drawn) [Example 002-112], the IC50 was less than 0.01 µM.

Consider `CNC(=O)c1cc(Nc2nc(NC3CCCC[C@@H]3N)c(F)cc2C(N)=O)ccn1` (stereo partly drawn) [Example 029-013], for which the IC50 was in the range of 0.01 to 0.05 µM. Same read-out and setting: under `NC(=O)c1cc(F)c(N[C@H](c2ccccc2)[C@@H](N)c2ccccc2)nc1Nc1ccc2cccnc2c1` (racemic) [Example 006-141, 6-(((1R,2S)-2-amino-1,2-diphenylethyl)amino)-5-fluoro-2-(quinolin-7-ylamino)nicotinamide 6-(((1S,2R)-2-amino-1,2-diphenylethyl)amino)-5-fluoro-2-(quinolin-7-ylamino)nicotinamide] stands 0.1 to 1 µM. For the molecule `COCCOc1ccc2cc(Nc3nc(N[C@H](C)[C@H](C)N)c(F)cc3C(N)=O)cnc2c1` (racemic) [Example 006-183, 6-(((2R,3S)-3-aminobutan-2-yl)amino)-5-fluoro-2-((7-(2-methoxyethoxy)quinolin-3-yl)amino)nicotinamide 6-(((2S,3R)-3-aminobutan-2-yl)amino)-5-fluoro-2-((7-(2-methoxyethoxy)quinolin-3-yl)amino)nicotinamide], the IC50 was less than 0.01 µM.

Still in this experiment, the particulars now being: read-out: Syk-inhibitory activity (IC50).
Take `Cc1cccc(Nc2nc(NCCN)c(F)cc2C(N)=O)c1` [Example 6-2, 6-((2-aminoethyl)amino)-5-fluoro-2-(3-methylphenylamino)nico-tinamide]: the IC50 is no more than 1 µM.

Regarding `NC(=O)c1cc(F)c(N[C@@H]2CCCC[C@@H]2N)nc1Nc1cncc(C(=O)O)c1` (relative stereo) [Example 29-1, 5-((3-aminocarbonyl-6-(cis-2-aminocyclohexylamino)-5-fluoropyridin-2-yl)amino)nicotinic acid], the IC50 was no more than 1 µM. On the same count and under the same terms, under `CCNc1nc(Nc2cnc3ccccc3c2)c(C(N)=O)cc1F` [Example 6-20, 6-(ethylamino)-5-fluoro-2-(quinolin-3-ylamino)nicotinamide] stands no more than 1 µM.
